The source of these data is article PMC10306101, “Substrate-derived Sortase A inhibitors: targeting an essential virulence factor of Gram-positive pathogenic bacteria” (Chemical Science, 2023).

Several values for one entry are separate records, joined by “and”; a condition that tells them apart may be missing. Equal entries are not always repeated. Where two headings read alike, the source gives them in different places. Non-standard residues stand in square brackets, D forms with d. Residues, ends and D or L forms follow the SMILES beside them. *: point of attachment. Bz = O=C(c1ccccc1)*; Sar = CNCC(=O)O

In general, IC50 refers to the concentration that gives 50% inhibition. The term inhibition denotes the relative decrease from the control value, in per cent.

Experiment [1] has as its target T1, SrtA (Staphylococcus aureus, UniProt Q2FV99).
T1 construct: His6 (N); made in house; host or cells: E. coli BL21, pET21b plasmid
As to the kind of experiment: biochemical. On the set-up: species or system S. aureus. The settings on record: for FRET inhibition: 200 nM SrtA, 200 μM inhibitor, HEPES buffer; for FRET inhibition / inhibition at 200 µM: mean ± SE, triplicate; for IC50: IC50, inhibitor 1 μM to 1500 μM, corrected for molar extinction coefficient; for inhibition at 200 µM: read-out: FRET inhibition, 200 nM SrtA, 200 μM inhibitor, HEPES buffer. On the procedure: In order to screen the activity of SrtA inhibitors, a FRET-based functional assay was used which employs an internally quenched fluorescent (IQF) substrate, Abz-LPETGK(Dnp)-NH2 (Fig. S37a ^†).[5] […] 5-((C4-Nitrobenzyl)thio)-1,3,4-thiadiazol-2-amine was used as a reference inhibitor in the experiment.[42] […]
Fluorescence resonance energy transfer assay
For the FRET assay, the compound 5-((4-nitrobenzyl) thio)-1,3,4-thiadiazol-2-amine was used as a reference and prepared by dissolving 3 µL of the available stock (10 mM) in […] HEPES and 1% DMSO to afford a 300 µM stock concentration for the assay. This reference compound […]
FRET assay was performed with an internally quenched fluorogenic (IQF) substrate to determine the inhibitory activity of the synthesized peptidomimetics. The assay was performed in a 30 μl reaction mixture in HEPES buffer (50 mM HEPES, 150 mM NaCl, 5 mM CaCl2, 0.05% Tween20, pH 7.5). SrtA solution (200 nM) was preincubated with compounds (200 μM) for 15 min at 22 °C followed by the addition of the substrate solution (25 μM Abz-LPETGK(Dnp)-NH2, 5 mM H-Gly3-OH, final assay concentration) in the same buffer. The cleavage of the Abz/Dnp-substrate was quantified by an increase in the fluorescence signal.
The fluorescence signal was monitored each minute for 45 minutes and plotted to obtain the fluorescence rate as a line curve. The assay was performed in 384 well Corning NBS microplates (flat bottom, no lid, low flange, non-binding surface, non-sterile, white polystyrene).
Fluorescence intensity was measured at emission and excitation wavelengths of […] using a Spectramax iD5 plate reader (Molecular Devices, San Jose, CA, USA). Triplicate measurements were taken for each data point to ensure the reproducibility of the results. The average value of the fluorescence signal readouts was plotted against time over […] for each compound to produce a line curve using Origin. The reference compound was used in the experiment to act as a positive control. The slope of each compound curve (Sx) and the slope of the substrate (S0) were extracted using the linear fit function in Microsoft Origin 2019. The percent inhibition was calculated according to the following equation: inhibitory rate = (1 – Sx/S 0) × 100%. For IC50 values, Sx values at different concentrations were plotted against log transformed concentration values and fitted with a sigmodial fit using the DoseResp function using Origin. The bottom asymptote of the dose-response curve was fixed at 0. The data were reported as mean ± SE%. […]

For a further experiment, the system named is S. aureus. As to the kind of experiment: Sytox Green fluorescence measurement of S. aureus incubated with inhibitors. Format: cell-based. The settings on record: 24 hours, control 294.0 ± 0.1. On the procedure: To achieve this, S. aureus was again incubated with our peptidomimetic inhibitors, specifically, 18, 22, 23 and 24 at 8, 32 and 128 μg mL^−1 and harvested after 24 hours to ensure the bacteria reach their growth plateau. Peptide 24 was included to confirm the influence of the N-terminal benzyl group. The bacterial cells were permeabilized and their […] were labelled using Sytox Green and subsequently their fluorescence was measured quantitatively. […] Bacteria incubated with 32 and 128 μg mL^−1 of 18 as well as 128 μg mL^−1 of 22 were also imaged using fluorescence microscopy (Fig. 4). In the control sample, planktonic bacteria could be abundantly observed (Fig. 4a). While it was hard to distinguish the microscopy images for the less strong inhibition (Fig. 4b and c), it became evident from the sample with 128 μg mL^−1 of 18 that visually bacterial growth was affected as well (Fig. 4d) where the bacteria were much more sparsely distributed in the sample. […]
For the fluorescence experiments S. aureus was cultured overnight in sterile TSB medium and diluted 1:250 by adding 2.5 μL bacterial culture into TSB medium in sterilized 1.5 mL Eppendorf tubes to a final volume of 500 μL. Subsequently, peptides were added to the bacteria from filter sterilized stocks in MQ-H2O to give 8, 32 and 128 μg/ml final concentrations. Then, bacteria were incubated at 37 °C for 24 hours and centrifuged for 3 minutes at 3000 rpm in an Eppendorf Microstar 30r centrifuge. The supernatant was discarded and the cells were washed once with sterilized PBS and centrifuged. 100 μL PBS-T (PBS + 0.1% Triton-X) was added to the cells for 15 minutes to induce cell membrane permeabilization. After removal of the PBS-T by centrifugation, 100 μL of 5 μM Sytox Green (Invitrogen, Waltham, MA, USA) solution in PBS […]
was added and the cells were stained for 30 minutes, centrifuged and washed with PBS twice.
For the fluorescence measurements, the cells were resuspended with 100 μL of PBS and added in a sterilized, white plastic polystyrene 96-well plate and their fluorescence was measured by exciting the samples at 488nm and measuring the fluorescence intensity at 533 nm in a microplate reader. All individual samples were carried out in duplicate. For the fluorescence microscopy experiments, the cells were treated in the same, but resuspended in 10 μL of PBS and 5 μL of bacterial suspension was spotted on a glass target plate dipped in a melted solution of 1.2% agarose in Tris-HCl (50 mM) to ensure fixation of the sample. The sledes were covered by a cover glass and observed on an Axio Imager Z2m fluorescence microscope (Zeiss, Jena, Germany) at 100 times magnification at the emission wavelength of […]
Biofilm inhibition assays
For the biofilm inhibition experiments the S. aureus strain CCUG10778 was cultured overnight in sterile BHI broth. A sterilized, clear polystyrene 96-well plate was prepared by coating with plasma by addition of 20% of final assay volume rabbit plasma to the wells and incubating overnight at 4 °C. Then, the cultured strain was diluted 1:100 by adding 2 μL into BHI medium on the plasma coated plate to a total volume of 200 μL. Subsequently, peptides were added to the bacteria from filter sterilized stocks in MQ-H2O to give 8, 32 and 128 μg/ml final concentrations and incubated for 12 hours at 37 °C without shaking. The supernatant was removed and the wells were rinsed with PBS and 100 μL of 1% crystal violet solution (diluted in PBS) was added and the biofilms were stained for 10 minutes. The wells were washed with PBS twice and 200 μL of a 95% ethanol solution in water was added to solubilize the cells for 30 minutes. 100 μL was transferred into a new 96-well plate and the absorbance measured at 595 nm using a Varioskan Lux microplate reader. All individual samples were carried out in […]
All computational studies and analysis steps were performed employing the YASARA molecular modeling program.6, 7
Molecular graphics were created with YASARA (www.yasara.org) and POVRay […]

Experiment [2] concerns SrtA. Conditions: cited from earlier work.
Experiment [3] relates to S. aureus strain CCUG10778 biofilm. Conditions: BHI, rabbit plasma coated plate.
The subject of experiment [4] is S. aureus strain CCUG10778. As to the kind of experiment: Growth profiling of S. aureus (absorbance at 600 nm). Format: cell-based. The settings on record: 2 to 128 μg mL^−1, TSB medium, up to 48 hours. The method, then: To assess whether our most promising compounds have a possibility of being potential antivirulent compounds, they were tested with pathogenic S. aureus bacteria to assess the peptidomimetic inhibitors for their ability to inhibit bacterial growth. Firstly, our compounds were incubated with S. aureus bacteria in a 96-well plate in Tryptic Soy Broth (TSB) medium, while we also included the reference compound used in the single-point in vitro inhibition studies. So far, the covalent binding thiadiazol reference compound was not tested in this respect, but was one of the most promising compounds identified in an earlier screening campaign.[42] The inhibitors were added at various concentrations, ranging from 2 μg mL^−1 to 128 μg mL^−1, and the absorbance at 600 nm was measured as an indication of their optical density (OD600) and by that the bacteria's ability to propagate in liquid media. In the negative control experiments, the bacteria consistently reached an OD600 of 0.6 between 6 and 12 hours (Fig. 3). […]
For the growth profiling experiments the S. aureus strain CCUG10778 was cultured overnight in sterile TSB medium and diluted 1:100 by adding 1 μL into TSB medium in a sterilized, clear polystyrene 96-well plate to a final assay volume of 100 μL. Subsequently, peptides were added to the bacteria from filter sterilized stocks in MQ-H2O to give 2, 8, 32 and 128 μg/ml final concentrations. Then, bacteria were incubated at 37 °C for 3, 6, 12, 24, 36 or 48 hours and their absorbance was measured at 600 nm using a Varioskan Lux microplate reader (Thermo Fisher Scientific, Waltham, MA, USA). All individual samples were carried out in triplicate. […]
Then, bacteria […]
were incubated at 37 °C for 24 hours and centrifuged for 3 minutes at 3000 rpm in an Eppendorf Microstar 30r centrifuge. The supernatant was discarded and the cells were washed once with sterilized PBS and centrifuged. 100 μL PBS-T (PBS + 0.1% Triton-X) was added to the cells for 15 minutes to induce cell membrane permeabilization. After removal of the PBS-T by centrifugation, 100 μL of 5 μM Sytox Green (Invitrogen, Waltham, MA, USA) solution in PBS

Experiment [5] deals with T1, SrtA. Format: biochemical, S. aureus. Conditions: 200 nM SrtA, inhibitor at 10 μM (detector oversaturation at 200 μM).

T1 sequence (Q2FV99 60-206): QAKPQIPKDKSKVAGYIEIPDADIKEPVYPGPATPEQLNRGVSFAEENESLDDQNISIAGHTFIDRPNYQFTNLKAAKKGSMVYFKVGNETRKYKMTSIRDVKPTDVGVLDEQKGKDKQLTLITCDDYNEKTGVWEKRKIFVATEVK

For ELPRDA [Compound 27], on SrtA [1], the FRET inhibition is 26% and 26.2 ± 2.0%.
Same read-out and setting: next, AcLPRDA [Compound 10]: 20.7 ± 2.9%; LPET-Sar [Compound 6]: 19.4 ± 2.6%.
H-LPRDF-NH2 [Compound 24, LPRDF] had an IC50 against SrtA [1] of 136.9 ± 1.2 µM. Besides, the inhibition at 200 µM on SrtA [1] was found to be 42.2 ± 6%. Also, the “Fluorescence value (Sytox Green, 533 nm)” value with S. aureus (8 μg/ml) came out at 315.7 ± 0.6; with S. aureus (32 μg/ml), 299.9 ± 1.2; with S. aureus (128 μg/ml), 283.0 ± 0.9.
`CC(C)C[C@H](N)C(=O)N1CCC[C@H]1C(=O)N[C@@H](CCCNC(=N)N)C(=O)N[C@@H](CC(=O)O)C(=O)N(C)CC(N)=O` [Compound 5, LPRD-Sar] (H-LPRD[Sar]-NH2): at SrtA [1], the FRET inhibition is listed as 68.5 ± 2.6%, the IC50 was determined as 18.9 ± 1.2 µM and the inhibition at 200 µM worked out at 69%.
As to CbzLPRDA [Compound 14], the FRET inhibition at SrtA [1] was 17.0 ± 2.8%.
On to KSFLPATGGAE [Compound 8], for which the FRET inhibition with SrtA [1] was 18% and 18.1 ± 2.9%.
On to PEG2000-LPRDA-NH2, for which the IC50 in the experiment on SrtA [2] (reported SrtA inhibitor) is 10.6 µM.
For H2N-LPRDA-OH [Compound 1], the FRET inhibition at SrtA [1] was found to be 29.2 ± 2.6%.
Same read-out and setting: the result for BzLPETP [Compound 19] reads 15.1 ± 3.8%.
Compound `CC(C)C[C@H](NC(=O)c1ccccc1)C(=O)N1CCC[C@H]1C(=O)N[C@@H](CCCNC(=N)N)C(=O)N[C@@H](CC(=O)O)C(=O)N(C)CC(N)=O` [Compound 18, BzLPRDSar] (Bz-LPRD[Sar]-NH2) displayed an IC50 against SrtA [1] of 57.4 ± 1.1 µM. Besides, the inhibition at 200 µM on SrtA [1] is 108 ± 6.9%. Besides, the biofilm inhibition in experiment [3] (8 μg mL^−1, 12 hours) is 52%; in experiment [3] (32 μg mL^−1, 12 hours), 73%; in experiment [3] (128 μg mL^−1, 12 hours), 95%.
Take LPRDA-Ado [Compound 2]: the FRET inhibition on SrtA [1] is given as 30.4 ± 2.8%.
As for GTEPL [Compound 9], the FRET inhibition on SrtA [1] was 38% and 37.7 ± 3.1%.
On the same count and under the same terms, the result for LPRDP [Compound 20] reads 32% and 32.3 ± 8.7%.
For the compound H-LPETP-NH2 [Compound 7, LPETP], the IC50 at SrtA [1] stood at 136.3 ± 1.2 µM.
As to `Nc1nnc(SCc2ccc([N+](=O)[O-])cc2)s1` [Reference (0), 5-((4-nitrobenzyl)thio)-1,3,4-thiadiazol-2-amine, reference compound], the “effect on bacterial growth (absorbance plateau, OD600)” value in experiment [4] was “did not show any activity”. Besides, the FRET inhibition at SrtA [1] was found to be 77.1 ± 4.1%. For the same compound, the IC50 with SrtA [2] (reported covalent inhibitor, ref 42 (supplement ref 4)) is 26 ± 0.7 µM; with SrtA [2] (reported covalent inhibitor, ref 42 (supplement ref 4), listed as 5-((C4-Nitrobenzyl)thio)-1,3,4-thiadiazol-2-amine) it was roughly 26 µM.
The compound ChLPRDA [Compound 12] had an FRET inhibition at SrtA [1] of 21.6 ± 4.2%.
On to BzLPRDP [Compound 21], for which the FRET inhibition on SrtA [1] turned out to be 31.0 ± 7.6%.
Still for that read-out and setting: the result for BzLPRDA [Compound 11] reads 37% and 37.2 ± 3.1%.
For the compound 2NapLPRDA [Compound 13], the “effect on bacterial growth (absorbance plateau, OD600)” value in experiment [4] was “did not have any effect”. The FRET inhibition at SrtA [5] is 47% and 47.4 ± 1.1 (at 10 μM) %.
Regarding Ado-LPRDA [Compound 3], the FRET inhibition at SrtA [1] is on record as 22.6 ± 2.8%.
As to `CC(C)C[C@H](NC(=O)c1ccccc1)C(=O)N1CCC[C@H]1C(=O)N[C@@H](CCCNC(=N)N)C(=O)N[C@@H](CC(=O)O)C(=O)N[C@@H](Cc1ccccc1)C(N)=O` [Compound 23, BzLPRDF] (Bz-LPRDF-NH2), at SrtA [1], half-maximal inhibition (IC50) was put at 114 ± 1.3 µM and the inhibition at 200 µM came out at 113 ± 26%.
